From the supplement of paper PMC10307832

Assays:
Test in all cases: relative viability (nuclei count vs DMSO), 5 days (fraction); higher = more cells survive
CX-5461 + Luminespib = compound: Cc1cnc(CNC(=O)c2c(=O)c3ccc(N4CCCN(C)CC4)nc3n3c2sc2ccccc23)cn1 [CX-5461] + CCNC(=O)c1noc(-c2cc(C(C)C)c(O)cc2O)c1-c1ccc(CN2CCOCC2)cc1 [Luminespib] (partner 0.01 µM)
Summary of the method: (§1)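 Medians of duplicate plates are given as relative viability. That measure is the nuclei count in treated wells divided by the count in vehicle wells. Counts were taken on 4× images of lung cancer cell lines in 1536-well plates, 5 days after pin-tool dosing the day after seeding with one drug alone or a fixed anchor-drug dose plus five library-drug doses (not always all listed) in √10 steps.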

CX-5461 + Olaparib = compound: Cc1cnc(CNC(=O)c2c(=O)c3ccc(N4CCCN(C)CC4)nc3n3c2sc2ccccc23)cn1 [CX-5461] + O=C(c1cc(Cc2n[nH]c(=O)c3ccccc23)ccc1F)N1CCN(C(=O)C2CC2)CC1 [Olaparib] (partner 8 µM)
Summary of the method: as §1

IMD-0354 + Pictilisib = compound: O=C(Nc1cc(C(F)(F)F)cc(C(F)(F)F)c1)c1cc(Cl)ccc1O [IMD-0354] + CS(=O)(=O)N1CCN(Cc2cc3nc(-c4cccc5[nH]ncc45)nc(N4CCOCC4)c3s2)CC1 [Pictilisib] (partner 1 µM)
Summary of the method: as §1

IMD-0354 + AZD7762 = compound: O=C(Nc1cc(C(F)(F)F)cc(C(F)(F)F)c1)c1cc(Cl)ccc1O [IMD-0354] + NC(=O)Nc1cc(-c2cccc(F)c2)sc1C(=O)N[C@H]1CCCNC1 [AZD7762] (partner 0.2 µM)
Summary of the method: as §1

Cell Line | relative viability (CX-5461 + Luminespib; first compound 0.01 µM) | relative viability (CX-5461 + Luminespib; first compound 0.03162 µM) | relative viability (CX-5461 + Luminespib; first compound 0.1 µM) | relative viability (CX-5461 + Luminespib; first compound 0.3162 µM) | relative viability (CX-5461 + Luminespib; first compound 1 µM) | relative viability (CX-5461 + Olaparib; first compound 0.01 µM) | relative viability (CX-5461 + Olaparib; first compound 0.03162 µM) | relative viability (CX-5461 + Olaparib; first compound 0.1 µM) | relative viability (CX-5461 + Olaparib; first compound 0.3162 µM) | relative viability (CX-5461 + Olaparib; first compound 1 µM) | relative viability (IMD-0354 + Pictilisib; first compound 0.04 µM) | relative viability (IMD-0354 + Pictilisib; first compound 0.1265 µM) | relative viability (IMD-0354 + Pictilisib; first compound 0.4 µM) | relative viability (IMD-0354 + Pictilisib; first compound 1.265 µM) | relative viability (IMD-0354 + Pictilisib; first compound 4 µM) | relative viability (IMD-0354 + AZD7762; first compound 0.04 µM) | relative viability (IMD-0354 + AZD7762; first compound 0.1265 µM) | relative viability (IMD-0354 + AZD7762; first compound 0.4 µM) | relative viability (IMD-0354 + AZD7762; first compound 1.265 µM) | relative viability (IMD-0354 + AZD7762; first compound 4 µM)
NCI-H1975 | 0.353 | 0.249 | 0.43 | 0.191 | 0.202 | 0.898 | 0.822 | 0.68 | 0.853 | 0.558 | 0.329 | 0.316 | 0.26 | 0.155 | 0.137 | 0.781 | 0.771 | 0.655 | 0.724 | 0.266
CAL-12T | 0.302 | 0.534 | 0.31 | 1.51 | 0.24 | 0.732 | 0.747 | 0.699 | 0.634 | 0.508 | 0.373 | 0.548 | 0.315 | 0.189 | 0.178 | 0.655 | 0.744 | 0.357 | 0.261 | 0.32
NCI-H1623 | 0.528 | 0.542 | 0.515 | 0.536 | 0.51 | – | – | – | – | – | – | – | – | – | – | – | – | – | – | –
HCC-44 | 1.11 | 1.26 | 0.714 | 0.834 | 0.208 | 0.966 | 1.04 | 1.03 | 1 | 1.01 | 0.634 | 0.534 | 0.415 | 0.12 | 0.156 | 0.988 | 1.01 | 1.01 | 0.855 | 0.314
EKVX | 0.868 | 0.91 | 0.728 | 0.843 | 0.689 | 0.931 | 0.901 | 0.983 | – | 0.73 | 0.477 | 0.465 | – | 0.389 | 0.174 | 0.741 | 0.625 | – | 0.328 | 0.21
NCI-H1651 | 0.827 | 0.682 | – | 0.603 | 0.171 | 0.188 | 0.175 | 0.191 | 0.163 | 0.159 | 0.663 | 0.461 | 0.34 | 0.068 | 0.0829 | 0.468 | 0.504 | 0.422 | 0.161 | 0.14
NCI-H2170 | 0.636 | 0.54 | 1.02 | 0.771 | 0.554 | 0.613 | 0.566 | 0.645 | 0.599 | 0.609 | 0.283 | 0.304 | 0.308 | 0.284 | 0.277 | 0.946 | 0.978 | 0.818 | 0.767 | 0.151
NCI-H1703 | – | – | – | – | – | 0.535 | 0.531 | 0.334 | 0.538 | 0.422 | 0.273 | 0.241 | 0.235 | 0.157 | 0.123 | 0.124 | 0.0845 | 0.141 | 0.142 | 0.117
Calu-6 | – | – | – | – | – | 0.523 | 0.546 | 0.482 | 0.543 | 0.253 | 0.988 | 0.87 | 0.379 | 0.121 | 0.0686 | – | – | – | – | –
EBC-1 | – | – | – | – | – | 0.684 | 0.701 | 0.595 | 0.706 | 0.579 | 0.421 | 0.327 | 0.29 | 0.153 | 0.157 | – | – | – | – | –
A-427 | 0.965 | 0.899 | 0.953 | – | 0.721 | 0.802 | 0.772 | 0.626 | 0.247 | 0.465 | 0.749 | 0.683 | 0.674 | 0.164 | 0.116 | 1.01 | 0.827 | 0.585 | 0.14 | 0.202
NCI-H2347 | 0.563 | 0.413 | 0.753 | 0.327 | 0.341 | 0.57 | 0.648 | 0.606 | 0.477 | 0.517 | 0.77 | 0.532 | 0.679 | 0.624 | 0.392 | 0.829 | 0.838 | 0.617 | 0.281 | 0.345
NCI-H1355 | 0.843 | 0.728 | 0.753 | 0.706 | 0.814 | 0.758 | 0.811 | 0.689 | 0.736 | 0.714 | 0.619 | 0.404 | 0.327 | 0.196 | 0.206 | 0.813 | 0.914 | 0.622 | 0.494 | 0.23
SK-MES-1 | 0.801 | 0.975 | 0.695 | 0.735 | 0.304 | 0.706 | 0.738 | 0.508 | 0.641 | 0.246 | 0.353 | 0.363 | 0.335 | 0.261 | 0.226 | – | – | – | – | –
PC-3 [JPC-3] | 0.726 | 0.708 | 0.62 | 0.635 | 0.721 | 1.15 | – | 1.08 | 1.15 | 0.898 | 0.779 | 0.701 | 0.588 | 0.376 | 0.229 | 1.01 | 0.751 | 0.64 | 0.291 | 0.355
NCI-H2228 | 0.148 | 0.147 | 0.196 | 0.172 | 0.101 | 0.75 | 0.773 | 0.518 | 0.55 | 0.188 | 0.388 | 0.367 | 0.217 | 0.365 | 0.247 | – | – | – | – | –
